Patent publication US20110059102A1, “Therapeutic Method Targeting Midkine” (NATIONAL UNIVERSITY CORPORATION NAGOYA UNIVERSITY, priority 2009, published 2011)
“Also recorded” adds a separate entry of the source. Where a name gives a salt, the structure may show the parent alone.

Experiments:
[1] = system: ACE; assay: ACE expression in HMVEC-L by Western blotting; assay type: cell-based, human
Excerpt: Histology and immunohistochemistry. The removed kidneys and lungs were fixed in 10% buffered formalin, embedded in paraffin, and then cut into 4-10.1 μm sections. The sections were stained with H&E, PAS, and Masson's trichrome. Another tissue sample was embedded in OCT compound (Sakura Finetek) and frozen in liquid nitrogen for immunostaining. Sections were cut to a thickness of 3 μm with a cryostat and fixed in acetone. High-power fields were used to examine the sections for evidence of focal sclerosis (J. Hypertens. 13:1785-1790, J. Lab. Clin. Med. 115:165-173). Glomerular sclerosis was assessed by semiquantitative score (grades 0 to +4) using the method of Raij et al. (Kidney Int. 26:137-143): grade 0, no sclerosis of glomeruli; grade 1, sclerosis of up to 25% of glomerulus; grade 2, sclerosis of 25%-50% of glomerulus; grade 3, sclerosis of 50%-75% of glomerulus; grade 4, sclerosis of 75%-100% of glomerulus. At least 50 glomeruli were evaluated under ×400 magnification and results averaged for each kidney (Mdk^+/+: 2 weeks, n=5; 4 weeks, n=4; 8 weeks, n=4; Mdk^−/−: 2 weeks, n=4; 4 weeks, n=3; 8 weeks, n=3). Immunostaining for ACE and MK was performed on buffered formalin-fixed tissues. Sections were deparaffinized, rehydrated, incubated in 3% hydrogen peroxide in methanol to block endogenous peroxidase, and washed in 10% normal goat serum (Dako) in PBS to block nonspecific binding. Subsequently, sections were incubated with mouse anti-ACE monoclonal antibody (dilution, 1:400; Chemicon International, Millipore) or anti-MK monoclonal antibody (dilution, 1:100) overnight at 4° C. as described previously (22), followed by a conjugate of polyclonal goat anti-mouse IgG antibody and HRP-labeled polymer (Histofine Simple Stain; Nichirei) for 1 hour at room temperature as a secondary antibody. The staining was visualized with 3-3′ diaminobenzidine (Nichirei) to produce a brown color. The sections were covered with 90% glycerol containing p-phenylenediamine and were examined by electron microscopy (H-7100; Hitachi). For double immunofluorescence staining of MK and thrombomodulin as a marker of the vascular endothelium, the cryosections of lungs were first incubated with chicken anti-human MK (dilution, 1:200) and then with rabbit anti-rat thrombomodulin (dilution, 1:1,000) (J. Immunol. 150:5633-5646), followed by incubation with FITC-labeled rabbit anti-chicken IgG (dilution, 1:160) and rhodamine-labeled goat anti-rabbit IgG (dilution, 1:320) as secondary antibodies. […] The lung and kidney section from each mouse was viewed under ×400 magnification, and then macrophages or neutrophils were counted from 10 fields and averaged. […]

[2] = Body weight, blood urea nitrogen and serum creatinine after 5/6 nephrectomy, drug treatment model; assay type: in vivo; conditions: Mdk+/+ mice; for BUN (blood urea nitrogen) / Cre (serum creatinine): 2 weeks after nephrectomy, oral daily at indicated dose, mean ± SD; for Abnormal elevation of blood urea nitrogen and serum creatinine: 2 weeks after 5/6 nephrectomy
Procedure: Animals and experimental design. Mice deficient in Mdk were generated as described previously (Genes Cells. 3:811-822). After backcrossing of Mdk+/− mice for 14 generations with 129/Sv mice, Mdk+/− mice were mated with each other to generate Mdk^+/+ and Mdk^−/− mice, which were used in this study. Experiments were performed on 8 to 12-week-old female mice weighing 20-25 g that were housed under controlled environmental conditions and maintained with standard food and water. Animal care and experimental procedures were approved by the Animal Experimentation Committee of the Nagoya University Graduate School of Medicine and were conducted according to the Nagoya University Regulations for Experiments. Renal ablation was performed as described previously. Briefly, mice were anesthetized by diethyl ether. The flank region was shaved, and the animals were placed on a heating pad to maintain a constant body temperature (37° C.). Under anesthesia, right flank incisions were made, and the right kidney was removed. Seven days later, mice were anesthetized as above, and two-thirds of the mass of the left kidneys was ablated (Mdk^+/+: 2 weeks, n=13; 4 weeks, n=13; 8 weeks, n=8; Mdk^−/−: 2 weeks, n=10; 4 weeks, n=10; 8 weeks, n=4). After the renal ablation, the flanks were closed in 2 layers with 5-0 silk sutures. The animals received 100 ml/kg warm saline instilled into the peritoneal cavity during the procedure and were allowed to recover with free access to food and water. In the control mice, a sham operation was performed (Mdk^+/+, n=11; Mdk^−/−, n=8).
(§1) Drug treatment model. In the drug treatment studies, Mdk^+/+ mice were randomly assigned to receive one of the following 5 treatments after 5/6 nephrectomy and were orally treated daily starting from 24 hours after 5/6 nephrectomy: vasodilator (hydralazine hydrochloride; Novartis) at a dose of 10 mg/kg/d (group 1, n=3); ACE inhibitor (temocapril; Daiichi Sankyo Co.) at a dose of 3 mg/kg/d (group 2, n=3); angiotensin receptor blocker (olmesartan; Daiichi Sankyo Co.) at a dose of 3 mg/kg/d (group 3, n=3); antioxidative reagent (tempol; Alexis Biochemicals) at a dose of 3 mmol/l in drinking solution after 5/6 nephrectomy (group 4, n=6); and sham operation (group 5, n=6). Drug treatment was performed […]. In the present study, we determined the dosage according to previous reports (Hypertension. 13:582-588, J. Cardiovasc. Pharmacol. 40:533-542, Hypertension. 43:841-848). Blood pressure was measured by the tail-cuff method at 2 weeks, as described below under Blood pressure monitoring. Mice were sacrificed at 2 weeks after 5/6 nephrectomy, and blood and tissue samples were collected.
Sample collection. Mice were sacrificed at 2, 4, and 8 weeks after 5/6 nephrectomy. The remnant kidney, lung, brain, heart, and liver were removed rapidly, snap-frozen in liquid nitrogen, and stored at −80° C. until examinations were performed. Each tissue was processed for histology, protein extraction, and RNA extraction. Blood samples were collected into chilled tubes for measurement of renal function parameters and into chilled tubes containing EDTA for Ang II measurements. Serum and plasma were separated by centrifugation (500 g for 10 minutes) and stored at −80° C. until measurement were performed. Serum creatinine, blood urea nitrogen (Mdk^+/+: sham, n=6; 2 weeks, n=10; 4 weeks, n=9; 8 weeks, n=8; Mdk^−/−: sham, n=7; 2 weeks, n=7; 4 weeks, n=6; 8 weeks, n=4), and Ang II concentrations (Mdk^+/+: sham, n=6; 2 weeks, n=6; 4 weeks, n=8; Mdk^−/−: sham, n=6; 2 weeks, n=7; 4 weeks, n=5) were measured by Mitsubishi BCL.

[3] = system: Mdk+/+ mice after 5/6 nephrectomy; assay: Blood pressure by tail-cuff method, drug treatment model after 5/6 nephrectomy; assay type: in vivo; conditions: 2 weeks after 5/6 nephrectomy
Procedure: as §1
(§2) Blood pressure monitoring. Blood pressure was measured in restrained, conscious mice by the indirect tail-cuff technique under unstressed conditions (BP-98A; Softron) at 0, 2, 4, 6, and 8 weeks after 5/6 nephrectomy (J. Lab. Clin. Med. 78:957-962). Before measurement, the mice were warmed with a heating pad for 5 minutes. A total of 7-10 readings were taken for each mouse, at 1- to 2-minute intervals.

[4] = system: Mdk+/+ mice after 5/6 nephrectomy; assay: Kidney histology (PAS staining) after 5/6 nephrectomy, drug treatment model; assay type: in vivo; conditions: 2 weeks after 5/6 nephrectomy; for Renal tubulointerstitial damage: PAS staining
Procedure: as §1
Histology and immunohistochemistry.

[5] = system: MK; assay: MK protein expression in lung and kidney by Western blotting after 5/6 nephrectomy; assay type: in vivo; conditions: Mdk+/+ mice after 5/6 nephrectomy
Procedure: as §1
Western blot analysis. Mouse kidney, lung, brain, heart, and liver tissues were snap-frozen in liquid nitrogen for protein isolation. […] The density of each band was measured using the public domain NIH Image program (http://rsb.info.nih.gov/nih-image/).

[6] = system: Ang II; assay: Plasma Ang II concentration after 5/6 nephrectomy; assay type: in vivo; conditions: Mdk+/+ mice after 5/6 nephrectomy
Procedure: as §1, with “Mice were sacrificed at 2 weeks after 5/6 nephrectomy, and blood and tissue samples were collected.” left out
Sample collection. […] Serum creatinine, blood urea nitrogen (Mdk^+/+: sham, n=6; 2 weeks, n=10; 4 weeks, n=9; 8 weeks, n=8; Mdk^−/−: sham, n=7; 2 weeks, n=7; 4 weeks, n=6; 8 weeks, n=4), and Ang II concentrations (Mdk^+/+: sham, n=6; 2 weeks, n=6; 4 weeks, n=8; Mdk^−/−: sham, n=6; 2 weeks, n=7; 4 weeks, n=5) were measured by Mitsubishi BCL.

[7] = system: HMVEC-L; assay: Ang II concentration in HMVEC-L (conversion from Ang I to Ang II); assay type: cell-based, human; conditions: HMVEC-L treated 36 hours with MK 100 ng/ml plus heparin 20 μg/ml or heparin alone, then Ang I added
Procedure: Ang II concentration in HMVEC-L. After reaching confluence, HMVEC-L were washed with PBS and cultured for 24 hours in essential basal medium containing 0.5% FBS. These cells were exposed to 100 ng/ml rh-MK plus 20 μg/ml heparin or 20 μg/ml heparin alone in essential basal medium containing 0.5% FBS for 36 hours. After stimulation, HMVEC-L were washed with PBS and exposed to 500 pM Ang I (Sigma-Aldrich) for 10 and 25 minutes. Supernatants were collected into chilled tubes, and then the Ang II concentration was measured as previously described (Hypertension. 39:129-134).

[8] = system: Mdk-/- mice after 5/6 nephrectomy; assay: rh-MK and -PTN treatment model (osmotic pump), blood pressure by tail-cuff; assay type: in vivo; conditions: 1.6 mg/ml, 100 μl by osmotic pump over 14 days
Procedure: rh-MK and -PTN treatment model. In the pump study, MK protein in saline (1.6 mg/ml) (n=5), PTN in saline (1.6 mg/ml; n=5), or saline alone (n=5) was infused using an osmotic pump (ALZA Corp.) into Mdk^−/− mice after 5/6 nephrectomy. The pumps continuously infused a total of 100 μl over 14 days. The pumps were implanted under the dorsal skin the next day after 5/6 nephrectomy. Blood pressure was measured by the indirect tail-cuff technique at 0 and 2 weeks after 5/6 nephrectomy. Mice were sacrificed at 2 weeks after 5/6 nephrectomy, and blood and tissue samples were collected.
as §2

In the case of `CN(C)CCCn1cc(C2=C(c3c[nH]c4ccccc34)C(=O)NC2=O)c2ccccc21` [BIS, bisindolylmaleimide I], the “MK-mediated increase in ACE expression” value ([1]; BIS 5 μM added 1 hour before 36-hour treatment with rh-MK plus heparin) is reported as “blocked” and the “PMA-induced increase in ACE expression” value ([1]; BIS added 1 hour before PMA) is reported as “blocked”.

For `NNc1nncc2ccccc12` [Hydralazine, hydralazine hydrochloride], the “BUN (blood urea nitrogen)” value [2] was 63.3 ± 7.6 mg/dL, the “Cre (serum creatinine)” value [2] was 0.53 ± 0.12 mg/dL and the “Abnormal elevation of blood urea nitrogen and serum creatinine” value (“Abnormal elevation” for short) [2] was “not”. For the same molecule, the “Blood pressure / hypertension” value [3] was “ameliorated hypertension” and the Renal tubulointerstitial damage [4] was “not”.

With `CCCc1nc(C(C)(C)O)c(C(=O)O)n1Cc1ccc(-c2ccccc2-c2nnn[nH]2)cc1` [Olmesartan, olmesartan] the “BUN (blood urea nitrogen)” value [2] was 36.0 ± 1.0^B mg/dl and the “Cre (serum creatinine)” value [2] was 0.21 ± 0.01^A mg/dl.

With `CCCCCCCCCCCCCC(=O)O[C@@H]1[C@@H](C)[C@@]2(O)[C@@H](C=C(CO)C[C@]3(O)C(=O)C(C)=C[C@@H]23)[C@@H]2C(C)(C)[C@]12OC(C)=O` [PMA] the “ACE expression in HMVEC-L” value ([1]; PMA 50 ng/ml) was “induced”.

In the case of `CCOC(=O)[C@H](CCc1ccccc1)N[C@H]1CS[C@H](c2cccs2)CN(CC(=O)O)C1=O` [Temocapril, temocapril], the “BUN (blood urea nitrogen)” value [2] is reported as 30.3 ± 2.9^A mg/dl, the “Cre (serum creatinine)” value [2] is reported as 0.21 ± 0.04^A mg/dl and the “Abnormal elevation” value [2] is reported as “ameliorated”. For the same molecule, the “Blood pressure / hypertension” value [3] was “reduced” and the Renal tubulointerstitial damage [4] was “reduced”.

In the case of `CC1(C)CC(O)CC(C)(C)N1[O]` [Tempol, 4-hydroxy-2,2,6,6-tetramethylpiperidine-N-oxyl], the “BUN (blood urea nitrogen)” value [2] is reported as 41.2 ± 3.9^B mg/dl, the “Cre (serum creatinine)” value [2] is reported as 0.25 ± 0.04^A mg/dl and the “Abnormal elevation” value [2] is reported as “significantly reduced”. For the same molecule, the “Blood pressure / hypertension” value [3] was “reduced”, the Glomerular sclerosis [4] was “ameliorated” and the Renal tubulointerstitial damage [4] was “slight; also recorded: ameliorated”. For the same molecule, the “MK expression in the lung” value ([5]; tempol 3 mmol/l in drinking water) was “reduced MK expression to normal levels”, the “MK expression in the kidney” value ([5]; tempol in drinking water) was “reduced” and the “Plasma Ang II levels” value [6] was “reduced”.

In the case of heparin, the “Conversion of Ang I to Ang II” value [7] is reported as “did not show such a conversion”.

B1: PTN: recombinant human pleiotrophin, shows 50% homology with MK (protein, UniProt P21246 33-168, looked up)
Pleiotrophin: GKKEKPEKKVKKSDCGEWQWSVCVPTSGDCGLGTREGTRTGAECKQTMKTQRCKIPCNWKKQFGAECKYQFQAWGECDLNTALKTRTGSLKRALHNAECQKTVTISKPCGKLTKPKPQAESKKKKKEGKKQEKMLD
In the case of B1, the “Hypertension (SBP)” value [8] is reported as “neither induced hypertension”.
